Among the data in patent US10093623B2, “Cyclic amides as MetAP-2 inhibitors” (MERCK PATENT GmbH, priority 2012, dated 2018) are IC50 values, retold here.

The target in the assay is MetAP-2 (Homo sapiens, UniProt P50579). The assay is described as follows: MetAP-2 activity measurement (coupled enzymatic reactions, Met-Arg-Ser substrate, dianisidine detection at 450 nm). It counts as biochemical. The following applies: Inhibition of MetAP-2; read-out: IC50 enzyme. Summed up: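 Rate read from the linear part of the 450 nm absorbance trace. Dianisidine oxidation by peroxidase reports H2O2 made when amino acid oxidase acts on methionine cleaved from MAS tripeptide, one mol dye per mol Met; extinction coefficient gives molar activity.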
MetAP-2, sequence (P50579 whole entry, species assumed): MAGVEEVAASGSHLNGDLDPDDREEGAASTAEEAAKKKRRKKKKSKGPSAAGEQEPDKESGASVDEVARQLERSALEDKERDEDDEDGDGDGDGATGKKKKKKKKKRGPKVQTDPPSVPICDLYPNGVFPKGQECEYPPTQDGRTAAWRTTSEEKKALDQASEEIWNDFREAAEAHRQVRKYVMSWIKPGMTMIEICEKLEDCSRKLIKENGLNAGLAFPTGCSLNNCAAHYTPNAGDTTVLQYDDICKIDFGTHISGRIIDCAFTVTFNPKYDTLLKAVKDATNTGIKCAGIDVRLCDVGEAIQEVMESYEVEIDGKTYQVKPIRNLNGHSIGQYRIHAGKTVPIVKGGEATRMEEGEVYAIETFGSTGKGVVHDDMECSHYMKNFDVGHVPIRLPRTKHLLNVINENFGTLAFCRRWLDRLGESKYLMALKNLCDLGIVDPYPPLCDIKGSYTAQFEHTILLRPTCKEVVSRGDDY

Take `O=C(NCc1cc(F)cc(Cl)c1)C1(O)CCN(c2cnc3[nH]c(C(F)(F)F)cc3c2)C1=O` (centres unmarked) [B76, N-(3-Chloro-5-fluorobenzyl)-3-hydroxy-2-oxo-1-(2-trifluoro-methyl-1H-pyrrolo[2,3-b]pyridin-5-yl)pyrrolidine-3-carboxamide]: the IC50 (usually the midpoint of a concentration-inhibition curve) was in the range of 10 to 1000 nM. With `CCS(=O)(=O)N1C[C@@H]2[C@H](C1)[C@H]2N1CCC(O)(C(=O)NCc2cc(F)cc(Cl)c2)C1=O` (stereo partly drawn) [A230, N-(3-Chloro-5-fluorobenzyl)-1-((1S,5R,6S)-3-ethanesulfonyl-3-azabicyclo[3.1.0]hex-6-yl)-3-hydroxy-2-oxopyrrolidine-3-carboxamide], the IC50 lay within 1000 to 10000 nM.

In the case of `N#Cc1c[nH]c2ccc(N3CCC(O)(C(=O)NCc4cc(F)cc(Cl)c4)C3=O)cc12` (centres unmarked) [A87, N-(3-Chloro-5-fluorobenzyl)-1-(3-cyano-1H-indol-5-yl)-3-hydroxy-2-oxopyrrolidine-3-carboxamide], the IC50 was 10 to 1000 nM. For `CC(=O)N[C@H]1CC[C@H](N2CCC(O)(C(=O)NCc3cc(F)cc(Cl)c3)C2=O)CC1` (some centres unmarked) [A122, N-(3-Chloro-5-fluorobenzyl)-1-(4-acetylaminocyclohexyl)-3-hydroxy-2-oxopyrrolidine-3-carboxamide], the IC50 lay within 1000 to 10000 nM. With `CNC(=O)c1cc2cc(N3CC[C@@](O)(C(=O)NCc4cc(F)cc(Cl)c4)C3=O)ccc2[nH]1` [B102, N-Methyl-5-[(R)-3-(3-chloro-5-fluorobenzylcarbamoyl)-3-hydroxy-2-oxopyrrolidin-1-yl]-1H-indole-2-carboxamide], the IC50 is above 10000 nM. For the molecule `CNC(=O)c1cccc(N2CC[C@](O)(C(=O)NCc3cc(F)cc(Cl)c3)C2=O)c1` [A161, N-(3-Chloro-5-fluorobenzyl)-(S)-3-hydroxy-1-(3-methyl-carbamoylphenyl)-2-oxo-pyrrolidine-3-carboxamide], the IC50 is 10 to 1000 nM. For `C=C(Cc1ccccc1)C(=O)[C@@]1(O)CCN(c2ccccc2)C1=O` [A110, (S)-3-(2-Benzylacryloyl)-3-hydroxy-1-phenylpyrrolidin-2-one], the IC50 was above 10000 nM. In the case of `O=C(NCc1cc(F)cc(Cl)c1)C1(O)CCN(CC2CCOCC2)C1=O` (centres unmarked) [A220, N-(3-Chloro-5-fluorobenzyl)-3-hydroxy-2-oxo-1-(tetrahydro-pyran-4-ylmethyl)pyrrolidine-3-carboxamide], the IC50 was 1000 to 10000 nM.

Regarding `COC(=O)c1cc(N2CCC(O)(C(=O)NCc3cc(F)cc(Cl)c3)C2=O)cnc1C` (centres unmarked) [A100, Methyl 5-[3-(3-chloro-5-fluorobenzylcarbamoyl)-3-hydroxy-2-oxopyrrolidin-1-yl]-2-methylnicotinate], the IC50 was in the range of 10 to 1000 nM. On to `O=C(NCc1cc(F)cc(Cl)c1)C1(O)CCN(c2cnc3[nH]cc(C(F)(F)F)c3c2)C1=O` (centres unmarked) [B104, N-(3-Chloro-5-fluorobenzyl)-3-hydroxy-2-oxo-1-(3-trifluoro-methyl-1H-pyrrolo[2,3-b]pyridin-5-yl)pyrrolidine-3-carboxamide], for which the IC50 lay within 10 to 1000 nM. Regarding `O=C(N1Cc2ccccc2C1)C1(O)CCN(c2ccccc2)C1=O` (centres unmarked) [A267, 3-(1,3-dihydroisoindole-2-carbonyl)-3-hydroxy-1-phenylpyrrolidin-2-one], the IC50 was in the range of 1000 to 10000 nM.

Take `O=C(NCCc1cccc(F)c1)C1(O)CCN(c2ccc3[nH]ccc3c2)C1=O` (centres unmarked) [A212, N-[2-(3-Fluorophenyl)ethyl]-3-hydroxy-1-(1H-indol-5-yl)-2-oxo-pyrrolidine-3-carboxamide]: the IC50 was in the range of 10 to 1000 nM. Turning to `O=C(NCCc1cc(F)cc(F)c1)[C@]1(O)CCN(c2ccc3[nH]ccc3c2)C1=O` [B111, N-[2-(3,5-Difluorophenyl)ethyl]-(R)-3-hydroxy-1-(1H-indol-5-yl)-2-oxopyrrolidine-3-carboxamide], the IC50 is 1000 to 10000 nM. Turning to `CC(=O)N1C[C@@H]2[C@H](C1)[C@H]2N1CCC(O)(C(=O)NCc2cc(F)cc(Cl)c2)C1=O` (stereo partly drawn) [A231, N-(3-Chloro-5-fluorobenzyl)-1-((1S,5R,6S)-3-acetyl-3-aza-bicyclo[3.1.0]hex-6-yl)-3-hydroxy-2-oxopyrrolidine-3-carboxamide], the IC50 fell in the range of 1000 to 10000 nM. As for `O=C(O)CCN1CCC(O)(C(=O)NCc2cc(F)cc(Cl)c2)C1=O` (centres unmarked) [A271, 3-[3-(3-Chloro-5-fluorobenzylcarbamoyl)-3-hydroxy-2-oxopyrrolidin-1-yl]-propionic acid], the IC50 was above 10000 nM. Under `O=C(NCc1cc(F)cc(Cl)c1)C1(O)CCN(C[C@H]2CC[C@H](C(=O)O)CC2)C1=O` (some centres unmarked) [A227, 4-[3-(3-Chloro-5-fluorobenzyl-carbamoyl)-3-hydroxy-2-oxo-pyrrolidin-1-ylmethyl]cyclo-hexanecarboxylic acid] stands 1000 to 10000 nM. `O=C(NCCc1cc(F)cc(Cl)c1)C1(O)CCN(c2ccc3[nH]ncc3c2)C1=O` (centres unmarked) [A168]: the concentration for half-maximal inhibition (IC50) lay within 10 to 1000 nM. For `NC(=O)c1cccc(N2CCC(O)(C(=O)NCCc3ccccc3F)C2=O)c1` (centres unmarked) [A179, N-[2-(2-Fluorophenyl)ethyl]-1-(3-carbamoylphenyl)-3-hydroxy-2-oxopyrrolidine-3-carboxamide], the IC50 lay in the range of 10 to 1000 nM. For the molecule `COc1ccc(CN2CC[C@@](O)(C(=O)NCc3cc(F)cc(Cl)c3)C2=O)cc1` [A182, N-(3-Chloro-5-fluorobenzyl)-(R)-3-hydroxy-1-(4-methoxybenzyl)-2-oxopyrrolidine-3-carboxamide], the IC50 is above 10000 nM. Regarding `O=C(NCc1cc(F)cc(Cl)c1)[C@@]1(O)CCN(c2cnc3[nH]cnc3c2)C1=O` [B92, N-(3-Chloro-5-fluorobenzyl)-(S)-3-hydroxy-1-(3H-imidazo-[4,5-b]pyridin-6-yl)-2-oxo-pyrrolidine-3-carboxamide], the IC50 was in the range of 10 to 1000 nM. In the case of `O=C(NC1CCC1)c1cccc(N2CC[C@@](O)(C(=O)NCc3cc(F)cc(Cl)c3)C2=O)c1` [A164, N-(3-Chloro-5-fluorobenzyl)-(R)-1-(3-cyclobutylcarbamoyl-phenyl)-3-hydroxy-2-oxo-pyrrolidine-3-carboxamide], the IC50 is above 10000 nM.

Consider `CC(=O)N1CCC2(CC1)CN(c1ccccc1)C(=O)[C@@]2(O)C(=O)NCc1cc(F)cc(Cl)c1` [A71, N-(3-Chloro-5-fluorobenzyl)-(S)-8-acetyl-4-hydroxy-3-oxo-2-phenyl-2,8-diazaspiro[4.5]decane-4-carboxamide], for which the IC50 is above 10000 nM. On to `O=C(NCc1cc(F)cc(Cl)c1)C1(O)CCN([C@H]2CC[C@H](C(=O)O)CC2)C1=O` (some centres unmarked) [A152, 4-[3-(3-Chloro-5-fluorobenzyl-carbamoyl)-3-hydroxy-2-oxo-pyrrolidin-1-yl]-cyclohexanecarboxylic acid], for which the IC50 fell in the range of 1000 to 10000 nM. Under `O=C1CCc2cc(N3CC[C@@](O)(C(=O)NCCc4cc(F)cc(F)c4)C3=O)ccc2N1` [A223, N-[2-(3,5-Difluorophenyl)ethyl]-(R)-3-hydroxy-2-oxo-1-(2-oxo-1,2,3,4-tetrahydroquinolin-6-yl)-pyrrolidine-3-carboxamide] stands above 10000 nM; under `NNC(=O)c1cc2cc(N3CC[C@](O)(C(=O)NCc4cc(F)cc(Cl)c4)C3=O)ccc2[nH]1` [B134, N-(3-Chloro-5-fluorobenzyl)-(S)-1-(2-hydrazinocarbonyl-1H-indol-5-yl)-3-hydroxy-2-oxo-pyrrolidine-3-carboxamide], 10 to 1000 nM. Take `O=C(NCc1cc(F)cc(Cl)c1)[C@@]1(O)CCN(c2ccc(C(F)(F)F)nc2)C1=O` [A99, N-(3-Chloro-5-fluorobenzyl)-(S)-3-hydroxy-2-oxo-1-(6-trifluoromethylpyridin-3-yl)-pyrrolidine-3-carboxamide]: the IC50 was in the range of 10 to 1000 nM. For `N#Cc1ccc(N2CC[C@](O)(C(=O)NCc3cc(F)cc(Cl)c3)C2=O)cn1` [A97, N-(3-Chloro-5-fluorobenzyl)-(S)-1-(6-cyanopyridin-3-yl)-3-hydroxy-2-oxopyrrolidine-3-carboxamide], the IC50 is 10 to 1000 nM. On to `O=C1N(CC2CCCCC2)CCC[C@@]1(O)CNCc1cc(F)cc(Cl)c1` [B64, (R)-3-[(3-Chloro-5-fluorobenzylamino)methyl]-1-cyclohexylmethyl-3-hydroxy-piperidin-2-one], for which the IC50 was above 10000 nM. Turning to `O=C1Nc2ccc(N3CC[C@@](O)(C(=O)NCc4cc(F)cc(Cl)c4)C3=O)cc2C1(F)F` [A288, N-(3-Chloro-5-fluorobenzyl)-(R)-1-(3,3-difluoro-2-oxo-2,3-dihydro-1H-indol-5-yl)-3-hydroxy-2-oxopyrrolidine-3-carboxamide], the IC50 is above 10000 nM. The figure for `O=C1COc2cc(N3CC[C@](O)(C(=O)NCc4cc(F)cc(Cl)c4)C3=O)ccc2N1` [A197, N-(3-Chloro-5-fluorobenzyl)-(S)-3-hydroxy-2-oxo-1-(3-oxo-3,4-dihydro-2H-benzo-1,4-oxazin-7-yl)pyrrolidine-3-carboxamide] is 10 to 1000 nM; for `NC(=O)CCN1CCC(O)(C(=O)NCc2cc(F)cc(Cl)c2)C1=O` (centres unmarked) [A300, N-(3-Chloro-5-fluorobenzyl)-1-(2-carbamoylethyl)-3-hydroxy-2-oxopyrrolidine-3-carboxamide] it is 1000 to 10000 nM; for `O=C1CCc2cc(NC(=O)C3CCN(c4ccc5c(c4)CCC(=O)N5)C3=O)ccc2N1` (centres unmarked) [A158, N-(2-Oxo-1,2,3,4-tetrahydro-quinolin-6-yl)-2-oxo-1-(2-oxo-1,2,3,4-tetrahydroquinolin-6-yl)-pyrrolidine-3-carboxamide] it is above 10000 nM. On to `CNC(=O)CN1CCC(O)(C(=O)NCc2cc(F)cc(Cl)c2)C1=O` (centres unmarked) [A208, N-(3-Chloro-5-fluorobenzyl)-3-hydroxy-1-methylcarbamoyl-methyl-2-oxopyrrolidine-3-carboxamide], for which the IC50 fell in the range of 1000 to 10000 nM.

For `NC(=O)Cn1cc(N2CC[C@](O)(C(=O)NCc3cc(F)cc(Cl)c3)C2=O)cn1` [B119, N-(3-Chloro-5-fluorobenzyl)-(S)-1-(1-carbamoylmethyl-1H-pyrazol-4-yl)-3-hydroxy-2-oxo-pyrrolidine-3-carboxamide], the half-inhibitory concentration (IC50) lay within 10 to 1000 nM. Consider `O=C(O)CN1CCC(O)(C(=O)NCc2cc(F)cc(Cl)c2)C1=O` (centres unmarked) [A203, [3-(3-Chloro-5-fluorobenzylcarbamoyl)-3-hydroxy-2-oxopyrrolidin-1-yl]-acetic acid], for which the IC50 is above 10000 nM.
